Where two headings read alike, the source gives them in different places.
Key:
[1] = test system: CD28-dependent T cell growth; experiment: Mouse T cell proliferation stimulated with anti-CD28 antibody and PMA (tritiumthymidine uptake); type: cell-based; settings: for IC50: T-cell, BALB/c mouse T cells, 10 ng/mL PMA and 250 ng/mL anti-CD28 antibody, tritiumthymidine uptake, read-out: CD28-dependent T cell growth suppressive action (IC50); for CD28-dependent T cell growth suppressive action (in words): mouse T cells stimulated with PMA and anti-CD28 antibody
Method: The spleen was aseptically isolated from 6-7-week-old male BALB/c mice (CHARLES RIVER LABORATORIES JAPAN, INC.), and splenocyte suspension was prepared using RPMI1640 medium (manufactured by Sigma-Aldrich Ltd.). After hemolysis by a hypotonic treatment using a mixed solution of 0.83% aqueous ammonium chloride and Tris-HCl buffer (pH 7.65) at 9:1, a T cell concentrated fraction was obtained using a T cell concentrated column (manufactured by R&D systems). A cell suspension prepared using RPMI1640 medium containing 10% fetal calf serum (FCS, manufactured by Sigma-Aldrich Ltd.) was added to a flat-bottomed 96 well microtest plate (manufactured by Becton, Dickinson and Company) at 5×10^5 cells/well. Furthermore, a test compound diluted with a medium to the final concentration of 1-10000 nmol/L, 10 ng/mL PMA (manufactured by Sigma-Aldrich Ltd.) and 250 ng/mL anti-CD28 antibody (manufactured by BD pharmingen) were added, and the mixture was cultured under the conditions of 37° C., 5% carbon dioxide, 95% air for 20 hr. After the completion of culture, tritiumthymidine (specific activity: […], manufactured by MP Biochemicals) was added at 18.5 kBq/well, and the mixture was further cultured for 4 hr. Then, the cells were recovered in a glass fiber filter using a cell harvester (manufactured by Molecular Devices Corp.), the radioactivity taken into the cells was measured using a plate scintillation counter (microbeta 1460, manufactured by PerkinElmer), based on which the mouse T cell growth induced by stimulation with PMA and anti-CD28 antibody was measured. To be specific, suppressing rate (%)=(1−(radioactivity (cpm) of well added with test compound)/(radioactivity (cpm) of well without addition of test compound))×100 was calculated from the average amount of tritiumthymidine uptake (cpm) of T cells in each well added with various concentrations of test compound. In addition, based on the dose response curve obtained by plotting the average tritiumthymidine uptake amount (cpm) or suppressing rate on the vertical axis and the concentration on the transverse axis, the concentration of the compound (IC50) suppressing the value to 50% of that of the control group was determined by nonlinear regression.

[2] = test system: TYPE II Collagen-Induced Arthritis in DBA/1J Mouse; experiment: Type II collagen-induced arthritis in DBA/1J mouse; type: in vivo; settings: 840 h
Method: Bovine Type II collagen (purchased from collagen technical workshop) (100-200 μg) was mixed with complete Freund's adjuvant (manufactured by Sigma-Aldrich Ltd.) containing killed tuberculosis H37Ra. Using the resulting emulsion, 6 to 7-week-old male DBA/1J mice (CHARLES RIVER LABORATORIES JAPAN, INC.) were subcutaneously immunized at the tail root twice at 3 week intervals, whereby arthritis was developed. A test compound was suspended or dissolved in 0.5% carboxymethylcellulose (manufactured by Sigma-Aldrich Ltd.), and repetitively administered orally at a dose of 0.1-30 mg/kg body weight using an oral gavage needle for 2 weeks from the day of booster. As to this model, the symptoms of arthritis of four limbs were evaluated based on the following judgment criteria using the scores of from 0 to 4. The arthritis score of each mouse was shown by the total of the scores of four limbs (maximum: 16 points).
As regards the arthritis score, each group (n=5-6) was evaluated using an average value and mean error, with a group administered only with a vehicle being control, and Mann-Whitney U test was used for statistical analysis, wherein p value of 0.05 or below was determined to be significant. In the following, the suppressive action of the compound of the present invention on mouse collagen induced arthritis is shown by the suppressing rate (%) (1−(average arthritis score of compound administration group)/(average arthritis score of control group)×100) calculated from the average arthritis score at 35 days after the primary immunization.

[3] = test system: Biphasic Auricular Edema in Egg Albumin-Induced Mouse; experiment: Egg albumin-induced mouse biphasic auricular edema; type: in vivo; settings: for suppressing rate (%) of auricular edema: 24 hr later, P <0.05; for suppressive action on edema (in words): 24 hr after induction with egg albumin
Method: Using saline (0.5 ml) containing egg albumin (10 μg, manufactured by Sigma-Aldrich Ltd.) and 1 mg of aluminum hydroxide gel, 6 to 7-week-old male BALB/c mice (CHARLES RIVER LABORATORIES JAPAN, INC.) were intraperitoneally immunized. Two weeks later, egg albumin (1.25 μg) was intradermally injected into the auricle of the mice for challenge, whereby biphasic auricular edema was induced 1 hr and 24 hr after the challenge. The compound of the present invention or a pharmaceutically acceptable salt thereof was suspended or dissolved in 0.5% carboxymethylcellulose, and repetitively administered orally at a dose of 0.01-30 mg/kg body weight for 3 days, from 2 days before the antigen challenge to the day of challenge, using an oral gavage needle. As for this model, the thickness of the auricle of the mouse was measured using a dial gauge (manufactured by Ozaki MFG. Co. Ltd.) and used as an index of auricular edema. As regards the thickness of the auricle, each group (n=8) was evaluated using an average value and mean error, with a group administered only with a vehicle being control, and t-test was used for statistical analysis, wherein p value of 0.05 or below was determined to be significant.

[4] = test system: Mouse Graft-Versus-Host Reaction (GvHR); experiment: Mouse graft-versus-host reaction (GvHR); type: in vivo; settings: P <0.05 vs vehicle
Method: Cyclophosphamide (manufactured by Shionogi & Co., Ltd.) is administered to male BDF1 recipient mouse (8-week-old, CHARLES RIVER LABORATORIES JAPAN, INC.) at a dose of 300 mg/kg from the tail vein as a pretreatment at 24 hr prior to injection of spleen cells. The spleen was aseptically isolated from male C57BL/6 donor mouse (8-week-old, CHARLES RIVER LABORATORIES JAPAN, INC.), minced in RPMI1640 medium (manufactured by Sigma-Aldrich Ltd.), and passed through a stainless mesh to give a splenocyte single cell suspension. After removal of red blood cells by a hypotonic treatment using a mixed solution of 0.83% aqueous ammonium chloride and Tris-HCl buffer (pH 7.65) at 9:1, splenocytes were washed and suspended in physiological saline to give a splenocyte suspension. The prepared cells were injected at 1×10^8 cells/mouse into the tail vein to induce acute GvHR. The compound of the present invention or a pharmaceutically acceptable salt thereof was suspended or dissolved in 0.5% carboxymethylcellulose, and repetitively administered orally at a dose of 3-30 mg/kg body weight for 28 days from the day of splenocyte injection, and the influence on the survival time was evaluated. After induction of acute GvHR, the survival of each individual was determined every day, and the day of confirmed death was taken as the survival time of each individual. As for the survival time, log-rank test analysis was performed using the group administered with vehicle alone as a control, and the multiplicity was adjusted by the Holm's method, wherein p value of 0.05 or below was determined to be significant.

[5] = test system: Mouse Skin Allograft Survival; experiment: Mouse skin allograft survival; type: in vivo; settings: for median survival time of skin graft: vehicle 9.5
Method: A tail skin graft (4×7 mm) of 5- to 7-week-old male AKR mouse (KYUDO Co. Ltd. was) was transplanted on the back of 5- to 7-week-old male C3H mouse (CHARLES RIVER LABORATORIES JAPAN, INC.), covered with aseptic gauze and bandaged. The bandage was removed at day 6 from the transplantation, and the graft was observed every day up to rejection. The rejection of the skin graft was determined to be the time point when 90% or more of the epithelium of the graft turned brown due to necrosis. The number of days from the transplantation to the rejection was taken as the survival time of the graft. The compound of the present invention or a pharmaceutically acceptable salt thereof was suspended or dissolved in 0.5% carboxymethylcellulose, and repetitively administered orally at a dose of 0.3-100 mg/kg body weight once a day for 14 days from the day of transplantation. As for the graft survival time, generalized Wilcoxon test analysis was performed using the group administered with vehicle alone as a control, and the multiplicity was adjusted by the Holm's method, wherein p value of 0.05 or below was determined to be significant.

[6] = test system: Experimental Autoimmune Encephalomyelitis in SJL/J Mouse; experiment: Experimental autoimmune encephalomyelitis in SJL/J mouse; type: in vivo; settings: 10 mg/kg oral, 3 weeks from immunization; average EAE score at 14 days after immunization; P <0.05
Method: The 139th-151st peptides (50 μg) of rat-derived proteolipid protein (manufactured by Bachem) was mixed with complete Freund's adjuvant containing killed tuberculosis H37Ra. Using the resulting emulsion, 10-week-old female SJL/J mice (CHARLES RIVER LABORATORIES JAPAN, INC.) were subcutaneously immunized on the back, whereby experimental autoimmune encephalomyelitis (EAE) was developed. The compound of the present invention or a pharmaceutically acceptable salt thereof was suspended or dissolved in 0.5% carboxymethylcellulose (manufactured by Sigma-Aldrich Ltd.), and repetitively administered orally at a dose of 3-30 mg/kg body weight using an oral gavage needle for 3 weeks from the day of immunization. As to this model, the symptoms of EAE were evaluated based on the following judgment criteria using the scores of from 0 to 5.
As regards the EAE score, each group (n=10) was evaluated using an average value and mean error, with a group administered only with a vehicle being control, and Mann-Whitney U test was used for statistical analysis, wherein p value of 0.05 or below was determined to be significant. In the following, the suppressive action of the compound of the present invention on EAE is shown by the suppressing rate (%) calculated from the average EAE score at 14 days after the immunization. […] From the results, the compound is considered effective for encephalomyelitis, multiple sclerosis and the like.

[7] = test system: Lupus Nephritis in MRL/MpJ-lpr/lpr Mouse; experiment: Lupus nephritis in spontaneous systemic lupus erythematosus model MRL/MpJ-lpr/lpr mouse; type: in vivo; settings: for urine protein score (mean ± SE): 4 weeks after administration, medium group 2.8 ± 0.2, P <0.05
Method: The compound of the present invention or a pharmaceutically acceptable salt thereof was suspended or dissolved in 0.5% carboxymethylcellulose, and repetitively administered orally to male MRL/MpJ-lpr/lpr mice at 16 weeks after birth (CHARLES RIVER LABORATORIES JAPAN, INC.), that had developed lupus nephritis, at a dose of 1 and 3 mg/kg body weight for 4 weeks using an oral gavage needle. During the dosing period, urine-protein level was scored once a week using Ames urine test paper (Albustix (registered trademark), Bayer, Ltd.•Sankyo Corp.). As regards the urine protein levels, each group (n=10) was evaluated using an average value and mean error, with a group administered only with a vehicle being control, and Dunnett's test was used for statistical analysis, wherein p value of 0.05 or below was determined to be significant.

[8] = 3 mg/kg oral, 2 weeks from booster, average arthritis score at 35 days after primary immunization, P <0.05, read-out: suppressing rate (%) of arthritis score

Compound | IC50 [1] [µM] | CD28-dependent T cell growth suppressive action (in words) [1] | inhibition in vivo at 3 mg/kg [2, 8] [%] | suppressing rate (%) of auricular edema ([3]; 10 mg/kg oral for 3 days) [%] | suppressive action on edema (in words) ([3]; 10 mg/kg) | median survival time ([4]; 30 mg/kg oral for 28 days from splenocyte injection) [days] | median survival time of skin graft ([5]; 30 mg/kg oral once a day for 14 days, P 0.13) [days] | effect on graft survival time (in words) ([5]; 100 mg/kg) | median survival time of skin graft ([5]; 100 mg/kg oral once a day for 14 days, P <0.05) [days] | suppressing rate (%) of EAE score [6] [%] | suppressing rate (%) of auricular edema ([3]; 3 mg/kg oral for 3 days) [%] | suppressive action on edema (in words) ([3]; 3 mg/kg) | median survival time ([4]; 3 mg/kg oral for 28 days from splenocyte injection) [days] | inhibition in vivo at 3 mg/kg ([2]; po, read-out: suppressing rate (%) of arthritis score) [%] | urine protein score (mean ± SE) ([7]; 1 mg/kg oral) | urine protein score (mean ± SE) ([7]; 3 mg/kg oral) | effect on urine protein score (in words) ([7]; at not less than 1 mg/kg, oral for 4 weeks, compared to the control group)
COC(=O)C[C@@H]1N=C(c2ccc(-c3ccc(OC)cc3)cc2)c2c(sc(CO)c2C)-n2c(C)nnc21 [Example 234, Methyl (S)-{2-hydroxymethyl-4-(4′-methoxybiphenyl-4-yl)-3,9-dimethyl-6H-thieno[3,2-f][1,2,4]triazolo[4,3-a][1,4]diazepin-6-yl}acetate] | 0.097 | have a CD28-dependent T cell growth suppressive action | 53.6 | 35.8 | significant suppressive action on edema | 32 | 11 | significantly prolonged the graft survival time | 14 | – | – | – | – | – | – | – | –
COC(=O)C[C@@H]1N=C(c2ccc(-c3cccc(C#N)c3)cc2)c2c(sc(C)c2C)-n2c(C)nnc21 [Example 8, Methyl (S)-{4-(3′-cyanobiphenyl-4-yl)-2,3,9-trimethyl-6H-thieno[3,2-f][1,2,4]triazolo[4,3-a][1,4]diazepin-6-yl}acetate] | 0.026 | have a CD28-dependent T cell growth suppressive action | 50 | – | – | – | – | – | – | 98 | 40.5 | significant suppressive action on edema | 56 | – | – | – | –
COC(=O)C[C@@H]1N=C(c2ccc(Cl)cc2)c2c(sc(C)c2C)-n2c(C)nnc21 [Example 1, Methyl (S)-{4-(4-chlorophenyl)-2,3,9-trimethyl-6H-thieno[3,2-f][1,2,4]triazolo[4,3-a][1,4]diazepin-6-yl}acetate] | 0.038 | have a CD28-dependent T cell growth suppressive action | – | – | – | – | – | – | – | – | – | – | – | 66.1 | 1.8 ± 0.3 | 1.6 ± 0.2 | significantly decreased the urine protein score

— patent US8044042B2, “Thienotriazolodiazepine compound and medicinal use thereof” (Mitsubishi Tanabe Pharma Corporation, priority 2005, dated 2011)
